Data reported in the supplement of paper PMC10331698.
± gives the standard deviation of the averaged measurements.

Experiments:
Test in all cases: level (log10 ratio to DMSO vehicle control); higher = higher biomarker level / cell amount than vehicle control
[1] = compound: C=CC(=O)OCCC(F)(F)C(F)(F)C(F)(F)C(F)(F)C(F)(F)C(F)(F)C(F)(F)C(F)(F)F [8:2 Fluorotelomer acrylate]; details: in DMSO
Experimental: (§1)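 BioMAP Diversity Plus panel of 12 human primary cell co-culture systems (3C, 4H, LPS, SAg, BT, BF4T, BE3C, CASM3C, HDF3CGF, KF3CT, MyoF, Mphg). Compounds were added 1 h before stimulation and left for 24 h (MyoF 48 h; BT 72 h for soluble read-outs or 6 d for IgG). Biomarkers were read by ELISA, cytotoxicity by SRB, PBMC viability and proliferation by Alamar Blue. Each well value was divided by the mean of 8 DMSO control wells on the same plate and log10 transformed; duplicate blinded samples were tested at 4 concentrations.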

[2] = compound: FC(F)(I)C(F)(F)C(F)(F)C(F)(F)C(F)(F)C(F)(F)I [1,6-Diiodoperfluorohexane]; details: 6700 nM; in DMSO
Experimental: as §1

[3] = compound: O=C(Cl)C(F)(F)C(F)(F)C(F)(F)C(=O)Cl [Hexafluoroglutaryl chloride]; details: in DMSO
Experimental: as §1

[4] = compound: OCC(F)(F)C(F)(F)C(F)(F)C(F)(F)C(F)(F)C(F)(F)C(F)(F)C(F)(F)C(F)(F)C(F)(F)C(F)(F)F [11:1 Fluorotelomer alcohol]; details: in DMSO
Experimental: as §1

[5] = compound: OCC(F)(F)C(F)(F)C(F)(F)C(F)(F)C(F)(F)C(F)(F)C(F)(F)C(F)(F)CO [1H,1H,10H,10H-Perfluorodecane-1,10-diol]; details: in DMSO
Experimental: as §1

[6] = compound: OCCC(F)(F)C(F)(F)C(F)(F)C(F)(F)C(F)(F)C(F)(F)C(F)(F)C(F)(F)F [8:2 Fluorotelomer alcohol]; details: 6700 nM; in DMSO
Experimental: as §1

[7] = compound: OCCCC(F)(F)C(F)(F)C(F)(F)C(F)(F)C(F)(F)C(F)(F)C(F)(F)C(F)(F)F [3-(Perfluorooctyl)propanol]; details: 6700 nM; in DMSO
Experimental: as §1

[8] = compound: OCCCCC(F)(F)C(F)(F)C(F)(F)C(F)(F)F [4:4 Fluorotelomer alcohol]; details: in DMSO
Experimental: as §1

| Test System | level (log10) ([1]; 6700 nM) | level (log10) ([1]; 20000 nM) | level (log10) ([1]; 60000 nM) | level (log10) [2] | level (log10) ([3]; 6700 nM) | level (log10) ([3]; 20000 nM) | level (log10) ([3]; 60000 nM) | level (log10) ([4]; 1100 nM) | level (log10) ([4]; 3300 nM) | level (log10) ([4]; 10000 nM) | level (log10) ([5]; 6700 nM) | level (log10) ([5]; 20000 nM) | level (log10) ([5]; 60000 nM) | level (log10) [6] | level (log10) [7] | level (log10) ([8]; 6700 nM) | level (log10) ([8]; 20000 nM) | level (log10) ([8]; 60000 nM) |
| --- | --- | --- | --- | --- | --- | --- | --- | --- | --- | --- | --- | --- | --- | --- | --- | --- | --- | --- |
| BE3C:CXCL10/IP-10 | -0.0215 ± 0.015 | -0.0165 ± 0.023 | 0.0005 ± 0.05 | 0.008 | 0.0325 ± 0.035 | 0.032 ± 0.028 | 0.0265 ± 0.043 | -0.0345 ± 0.035 | -0.0745 ± 0.03 | -0.043 ± 0.0071 | -0.0205 ± 0.013 | -0.19 ± 0.088 | -0.94 | -0.0515 ± 0.057 | -0.009 ± 0.0099 | -0.0035 ± 0.0021 | 0 | 0.014 ± 0.017 |
| LPS:CD40 | -0.008 ± 0.017 | -0.0285 ± 0.036 | -0.031 ± 0.016 | -0.009 | -0.011 ± 0.057 | 0.0315 ± 0.032 | -0.0375 ± 0.063 | 0.0305 ± 0.028 | 0.0205 ± 0.0035 | -0.0275 ± 0.00071 | -0.0225 ± 0.015 | -0.0585 ± 0.037 | -0.095 | -0.068 ± 0.014 | -0.039 ± 0.018 | -0.0175 ± 0.063 | -0.0095 ± 0.028 | -0.042 ± 0.027 |
| BF4T:SRB | -0.004 ± 0.0028 | -0.011 ± 0.013 | 0.0055 ± 0.0092 | -0.016 | -0.015 ± 0.0099 | -0.0115 ± 0.0035 | -0.0195 ± 0.0035 | -0.003 ± 0.0014 | -0.0075 ± 0.0064 | 0.001 ± 0.014 | -0.005 ± 0.0028 | -0.0315 ± 0.0035 | -0.097 | -0.0095 ± 0.0035 | -0.0075 ± 0.0021 | -0.0105 ± 0.0092 | -0.0085 ± 0.0064 | -0.002 ± 0.011 |
| BF4T:tPA | -0.046 ± 0.013 | -0.0635 ± 0.023 | -0.0465 ± 0.012 | -0.119 | 0.0095 ± 0.0078 | -0.019 ± 0.0099 | -0.0095 ± 0.019 | 0.0015 ± 0.0092 | -0.003 ± 0.0071 | 0.026 ± 0.024 | -0.061 ± 0.016 | -0.164 ± 0.013 | -0.246 | -0.103 ± 0.029 | 0.056 ± 0.016 | -0.0095 ± 0.011 | -0.01 | 0.0205 ± 0.036 |
| BF4T:IL-1alpha | -0.0115 ± 0.013 | -0.0185 ± 0.00071 | 0.015 ± 0.037 | -0.017 | -0.014 ± 0.04 | -0.015 ± 0.018 | 0.0015 ± 0.0064 | -0.016 ± 0.0014 | -0.0125 ± 0.013 | 0.0025 ± 0.0021 | 0.0005 ± 0.0021 | -0.025 ± 0.023 | -0.035 | 0.005 | -0.012 ± 0.0014 | 0.0075 ± 0.013 | -0.0105 ± 0.0035 | -0.001 ± 0.017 |
| LPS:M-CSF | 0.001 ± 0.0085 | -0.006 ± 0.023 | -0.03 ± 0.0014 | -0.008 | -0.014 ± 0.05 | 0.001 ± 0.0085 | -0.0105 ± 0.005 | -0.009 ± 0.018 | -0.054 ± 0.047 | -0.0825 ± 0.066 | -0.018 ± 0.024 | -0.013 | 0.011 | -0.06 ± 0.13 | -0.073 ± 0.03 | 0.0085 ± 0.0078 | -0.001 ± 0.017 | 0.018 ± 0.0085 |
| BF4T:MMP-1 | 0.002 ± 0.0057 | 0.0025 ± 0.0021 | 0.0175 ± 0.022 | -0.006 | -0.0125 ± 0.018 | 0.003 ± 0.0028 | 0 ± 0.017 | -0.0095 ± 0.005 | -0.01 | -0.0015 ± 0.016 | -0.003 ± 0.011 | -0.0505 ± 0.011 | -0.007 | 0.0035 ± 0.016 | 0.022 ± 0.0099 | 0.0075 ± 0.018 | 0.0045 ± 0.025 | 0.009 ± 0.03 |
| LPS:CD141/Thrombomodulin | -0.044 ± 0.04 | -0.085 ± 0.016 | -0.0925 ± 0.03 | 0.007 | -0.0035 ± 0.066 | -0.017 ± 0.028 | -0.017 ± 0.021 | -0.0285 ± 0.015 | -0.0185 ± 0.012 | -0.0035 ± 0.013 | -0.02 ± 0.03 | 0.007 ± 0.044 | -0.047 | -0.0605 ± 0.14 | 0.092 ± 0.031 | 0.0135 ± 0.032 | 0.0215 ± 0.0078 | 0.007 ± 0.0085 |
| BT:sIL-6 | 0.0525 ± 0.019 | 0.029 ± 0.0028 | 0.0215 ± 0.039 | -0.018 | -0.0085 ± 0.042 | 0.008 ± 0.055 | -0.033 ± 0.023 | 0.209 ± 0.0092 | 0.116 ± 0.034 | 0.083 ± 0.085 | -0.0075 ± 0.011 | -0.0405 ± 0.032 | -0.673 | 0.0665 ± 0.013 | 0.0875 ± 0.052 | 0.036 ± 0.033 | -0.0255 ± 0.005 | -0.069 ± 0.09 |
| BT:sIL-2 | 0.051 ± 0.0042 | -0.061 ± 0.17 | -0.036 ± 0.13 | -0.059 | -0.0205 ± 0.07 | -0.001 ± 0.1 | 0.0415 ± 0.066 | 0.108 ± 0.058 | 0.0255 ± 0.083 | -0.02 ± 0.073 | 0.002 ± 0.035 | 0.0135 ± 0.005 | -0.482 | 0.001 ± 0.052 | -0.0245 ± 0.016 | -0.0015 ± 0.044 | -0.0135 ± 0.043 | -0.017 ± 0.092 |
| BF4T:CD106/VCAM-1 | -0.038 ± 0.0071 | -0.06 ± 0.024 | -0.0235 ± 0.076 | -0.041 | -0.0385 ± 0.039 | -0.022 ± 0.058 | -0.058 ± 0.0085 | 0.0045 ± 0.016 | -0.021 ± 0.025 | -0.016 ± 0.02 | -0.012 ± 0.023 | -0.139 ± 0.037 | -0.145 | -0.0905 ± 0.023 | -0.014 ± 0.0099 | -0.0145 ± 0.0064 | -0.0205 ± 0.018 | 0.0135 ± 0.043 |
| 4H:CD87/uPAR | -0.045 ± 0.051 | -0.03 ± 0.011 | -0.064 ± 0.069 | -0.009 | 0.0165 ± 0.0035 | 0.0115 ± 0.03 | 0.004 ± 0.018 | -0.0285 ± 0.037 | -0.0415 ± 0.028 | 0 ± 0.059 | -0.057 ± 0.0099 | -0.083 ± 0.0042 | -0.097 | -0.069 ± 0.025 | -0.0615 ± 0.025 | -0.0385 ± 0.029 | -0.044 ± 0.021 | -0.0195 ± 0.013 |
| LPS:sTNF-alpha | -0.0245 ± 0.025 | -0.029 ± 0.027 | -0.0175 ± 0.012 | -0.007 | 0.046 ± 0.023 | 0.033 ± 0.0085 | 0.0465 ± 0.012 | 0.0075 ± 0.012 | -0.0485 ± 0.013 | -0.105 ± 0.08 | -0.0915 ± 0.069 | -0.043 ± 0.0085 | -0.023 | 0.0175 ± 0.03 | -0.335 ± 0.2 | 0.0195 ± 0.11 | 0.0205 ± 0.12 | 0.0155 ± 0.14 |
| BF4T:CXCL8/IL-8 | -0.0395 ± 0.021 | -0.017 ± 0.028 | -0.004 ± 0.017 | -0.014 | 0.045 ± 0.086 | 0.037 ± 0.072 | 0.048 ± 0.089 | 0.001 ± 0.0057 | 0.0145 ± 0.037 | 0.028 ± 0.042 | 0.0005 ± 0.0064 | 0.0095 ± 0.00071 | 0.004 | -0.0095 ± 0.0092 | 0.006 ± 0.023 | -0.013 ± 0.021 | 0.018 ± 0.0057 | 0.0185 ± 0.005 |
| BF4T:PAI-I | -0.0035 ± 0.0064 | -0.0055 ± 0.0035 | 0.007 ± 0.017 | -0.072 | -0.01 ± 0.014 | -0.002 ± 0.0042 | -0.0005 ± 0.005 | -0.003 ± 0.011 | -0.003 ± 0.0042 | 0.002 ± 0.027 | -0.021 ± 0.021 | -0.111 ± 0.0021 | -0.156 | -0.0135 ± 0.0035 | -0.016 ± 0.024 | 0.0065 ± 0.0078 | 0.011 ± 0.0099 | 0.0125 ± 0.012 |
